Data as given in patent publication US8426437B2, “Pyrroloquinoline derivatives and their use as protein kinases inhibitors” (Pierre Fabre Medicament, priority 2005, dated 2013).
Values belong to the compound of their own block, whether it stands above or below them.

Experiments:
TrkB = biological target: T1, TrkB (Homo sapiens, UniProt Q16620); test: Inhibition of kinase TrkB (Kinase-Glo); type: biochemical; conditions: TrkB 4 μg/ml, 40 μM ATP, two hours at 30° C.
T1 construct: purchased Upstate 14-507
T1 sequence (Q16620 32-822): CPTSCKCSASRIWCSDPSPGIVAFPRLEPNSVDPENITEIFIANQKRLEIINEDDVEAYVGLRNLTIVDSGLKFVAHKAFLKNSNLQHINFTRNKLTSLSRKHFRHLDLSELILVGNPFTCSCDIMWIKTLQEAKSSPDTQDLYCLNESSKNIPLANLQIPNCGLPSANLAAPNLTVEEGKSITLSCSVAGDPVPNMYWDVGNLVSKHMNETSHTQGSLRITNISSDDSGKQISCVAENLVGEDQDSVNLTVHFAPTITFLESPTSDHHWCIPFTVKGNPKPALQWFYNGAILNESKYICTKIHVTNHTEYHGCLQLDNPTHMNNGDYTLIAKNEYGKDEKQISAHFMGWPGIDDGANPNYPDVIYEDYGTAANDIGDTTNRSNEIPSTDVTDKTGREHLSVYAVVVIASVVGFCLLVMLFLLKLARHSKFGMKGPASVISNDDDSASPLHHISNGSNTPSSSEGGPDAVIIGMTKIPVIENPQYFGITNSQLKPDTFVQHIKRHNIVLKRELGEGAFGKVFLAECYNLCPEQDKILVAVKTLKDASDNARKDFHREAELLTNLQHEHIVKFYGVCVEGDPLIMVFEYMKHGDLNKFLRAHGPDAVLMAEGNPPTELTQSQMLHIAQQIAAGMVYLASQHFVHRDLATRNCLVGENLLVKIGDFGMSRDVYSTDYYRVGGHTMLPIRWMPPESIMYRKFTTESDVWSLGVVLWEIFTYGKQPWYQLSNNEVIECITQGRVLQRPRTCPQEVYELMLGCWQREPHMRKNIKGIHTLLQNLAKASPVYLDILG
How it was run: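 TrkB at 4 μg/ml with 2.5 mg/ml poly-EY and 40 μM ATP in MOPS/NaOH pH 7 buffer with MgAc, EDTA, DTT, vanadate and glycerophosphate; compounds at final 10 nM–30 μM. After 2 h at 30°C, remaining ATP measured by Kinase-Glo luminescence.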

FGFR1 (h) = biological target: T2, FGFR1 (h) (Homo sapiens, UniProt P11362); test: Upstate kinase panel: FGFR1; type: biochemical; conditions: compound 1 μM, ATP (200), read-out: % inhibition at 1 μMol
T2 construct: purchased Upstate
T2 sequence (P11362 22-822): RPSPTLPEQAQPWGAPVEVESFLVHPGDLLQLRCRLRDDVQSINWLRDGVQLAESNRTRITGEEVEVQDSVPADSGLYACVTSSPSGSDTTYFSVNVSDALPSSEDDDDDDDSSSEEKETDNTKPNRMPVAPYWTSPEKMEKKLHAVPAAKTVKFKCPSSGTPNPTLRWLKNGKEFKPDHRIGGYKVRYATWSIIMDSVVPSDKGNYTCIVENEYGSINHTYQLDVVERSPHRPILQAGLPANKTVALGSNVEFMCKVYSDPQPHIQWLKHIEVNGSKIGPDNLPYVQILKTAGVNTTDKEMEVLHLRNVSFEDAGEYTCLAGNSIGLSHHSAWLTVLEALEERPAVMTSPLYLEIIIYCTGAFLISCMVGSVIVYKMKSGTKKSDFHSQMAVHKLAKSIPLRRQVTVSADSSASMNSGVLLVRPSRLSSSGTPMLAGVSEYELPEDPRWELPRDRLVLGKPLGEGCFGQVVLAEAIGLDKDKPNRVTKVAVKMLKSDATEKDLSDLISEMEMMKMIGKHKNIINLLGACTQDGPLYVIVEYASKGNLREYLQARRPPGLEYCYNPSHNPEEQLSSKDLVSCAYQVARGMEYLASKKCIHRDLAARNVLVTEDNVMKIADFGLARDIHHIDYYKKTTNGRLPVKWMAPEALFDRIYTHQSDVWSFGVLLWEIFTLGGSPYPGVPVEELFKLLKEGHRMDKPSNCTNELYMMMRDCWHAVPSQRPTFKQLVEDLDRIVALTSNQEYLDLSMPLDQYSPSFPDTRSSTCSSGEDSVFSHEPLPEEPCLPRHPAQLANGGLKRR
Description: These kinases are produced by Upstate and screened according to the respective protocols indicated by the supplier (http://www.upstate.com/features/kp_protocols.asp). Examples 1, 12, 166 and 238 were tested at a concentration of 20 μM, 10 μM, 1 μM and 1 μM respectively in the presence of 10 μM of ATP for examples 1 and 12 and at the concentrations of ATP shown in parentheses for examples 166 and 238. The results shown in Table VII correspond to percentage inhibition of the kinase tested in the presence of the compound, relative to a control effected without the compound.

U251 = test: WST test, inhibition of proliferation of U251; type: cell-based; conditions: Homo sapiens, U-251, 96 h; line U251, tissue of origin CMS; four days of incubation, WST-1
Description: (§1) The inhibition of the proliferation of cell lines by certain compounds of the invention was tested. […] In the example, the lines used were derived from cancers of the uterus, central nervous system, colon, stomach, head and neck, lung, breast, pancreas, and kidney, as well as from lymphoma, myeloma, pleura, or from melanoma.
(§2) The WST test for measuring cell proliferation and viability (Roche Applied Science) is based on cleavage of a tetrazolium salt by the mitochondrial dehydrogenases in viable cells.
(§3) After four days of incubation of the compounds with the cell line, 14 μl of WST-1 reagent is added to each well and the plates are incubated for four hours at 37° in humid atmosphere at 5% CO2. The level of formazan formed is then determined by spectrophotometry at 450 nm whereas a reference is measured at 650 nm. A control with untreated cells is represented by six wells per plate and the group of treated cells is produced in triplicate for each of the concentrations measured.
(§4) The compounds are tested at five concentrations between 10 nM and 100 μM and two cytotoxic agents are used as controls: adriamycin and 5-fluorouracil.

HT144 = test: WST test, inhibition of proliferation of HT144; type: cell-based; conditions: Homo sapiens, HT-144, 96 h; line HT144, tissue of origin Melanoma; four days of incubation, WST-1
Description: as §1, §2, §3, §4

A172 = test: WST test, inhibition of proliferation of A172; type: cell-based; conditions: Homo sapiens, A 172, 96 h; line A172, tissue of origin CMS; four days of incubation, WST-1
Description: as §1, §2, §3, §4

A427 = test: WST test, inhibition of proliferation of A427; type: cell-based; conditions: Homo sapiens, A-427, 96 h; line A427, tissue of origin Lung (NSCLC); four days of incubation, WST-1
Description: as §1, §2, §3, §4

PIM-1 = biological target: T3, PIM-1 (Homo sapiens, UniProt P11309); test: Inhibition of kinase PIM-1 (Kinase-Glo); type: biochemical; conditions: PIM-1 0.625 μg/ml, 10 μM ATP, forty minutes at 30° C.
T3 construct: purchased Upstate 14-573
T3 sequence (P11309 whole entry): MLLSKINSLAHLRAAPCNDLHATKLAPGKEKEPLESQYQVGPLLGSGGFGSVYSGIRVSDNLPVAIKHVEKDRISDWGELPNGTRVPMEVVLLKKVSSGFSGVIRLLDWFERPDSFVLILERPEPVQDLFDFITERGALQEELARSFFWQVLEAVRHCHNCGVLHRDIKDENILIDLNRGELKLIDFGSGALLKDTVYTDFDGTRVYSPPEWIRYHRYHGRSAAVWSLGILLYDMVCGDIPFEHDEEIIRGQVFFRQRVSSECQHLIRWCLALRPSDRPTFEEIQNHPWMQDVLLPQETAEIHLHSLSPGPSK
How it was run: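 PIM-1 (0.625 μg/ml) in MOPS/NaOH pH 7 with Mg acetate was run with 70 μM S6 kinase/Rsk2 peptide and 10 μM ATP, with compound at 10 nM–30 μM final.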

IC50 (TrkB): 1 to 10 µM
SMILES: CCOC(=O)c1c[nH]c2c(=O)[nH]c3ccc(S(=O)(=O)Nc4ccc(F)cc4)cc3c12 [Compound 12, 8-(4-Fluorophenylsulfamoyl)-4-oxo-4,5-dihydro-3H-pyrrolo[2,3-c]quinoline-1-ethyl carboxylate]

inhibition at 1 µM (FGFR1 (h)): 51% | IC50 (U251): 33 µM | IC50 (HT144): 31 µM
SMILES: CCOC(=O)c1c[nH]c2c(=O)[nH]c3ccc(-c4cccc(S(C)(=O)=O)c4)cc3c12 [Compound 238, 8-(3-Methanesulfonyl-phenyl)-4-oxo-4,5-dihydro-3H-pyrrolo[2,3-c]quinoline-1-ethyl carboxylate]
IC50 (A172): 13 µM | IC50 (A427): 36 µM

IC50 (PIM-1): 10 to 100 µM
SMILES: CCOC(=O)c1c[nH]c2c(=O)[nH]c3ccccc3c12 [Compound 1, 4-Oxo-4,5-dihydro-3H-pyrrolo[2,3-c]quinoline-1-ethyl carboxylate]
